These compounds were tested on primary hepatocytes isolated from rats (assay: Hepatocyte protective effect against substances deriving hepatocyte toxicity (WST-1 viability)). Conditions: Rattus norvegicus, Hepatocyte, doxorubicin, 24-48 h, read-out: EC50, cell protective effects against doxorubicin in hepatocytes.
Format: cell-based
Experimental: Various endogenous/exogenous attacks on the cells trigger the mechanisms of cell death which is broadly classified into two types, i.e. apoptosis or necrosis. Using these cell death mechanisms, in the present experimental example, primary hepatocytes isolated from rats were treated with drugs which were clinically shown to result in serious side-effects of hepatocyte toxicity or various chemicals which derive cell death, and the compounds synthesized in the Examples were estimated for their hepatocyte protective effects, after 24-48 h. The substances used to derive hepatocyte death include CCl4, ActD, H2O2, doxorubicin, anti-Fas Ab/Actinomycin D, acetaminophen, EtOH, CdCl2, palmitate, stearate, cyclophosphamide, terfenadine, diclofenac, simvastatin, and adefovir. Primary hepatocytes were isolated using the method of Seglen PO (Experimental Cell Research 74 (1972) pp 450-454). Briefly, hepatocytes were isolated according to the two-step collagenase perfusion method, and dead cells were removed by low speed (500 rpm) centrifugation for 10 min using percoll gradient (Kreamer B L etc, In Vitro Cellular & Developmental Biology 22 (1986) pp 201-211). During this step, the viability of cells was maintained 90% or above. The cells were suspended in HepatoZYME media (Gibco BRL), and the number of cells was counted. 1.5×10^4 cells in 100 μl were placed into the collagen-coated 96-well plate (BD biocoat), and adhered on the bottom for 3-4 h.
In order to assess the hepatocyte protective effect, above adhered cells were pretreated with the Example compounds for 30 min. At this time, the concentration of the Example compounds were serially diluted by 2-fold or 3-fold over 5 steps starting from 30 uM, 10 uM or 1 uM depending on the experiments, and the final concentration of DMSO was adjusted to 0.2%. 30 min after the treatment by compounds, cells were treated by the substances deriving hepatocyte death or hepatotoxic drugs at the concentrations indicated in Table 1. After 24-48 h, the viability of cells was determined to estimate the hepatocyte protective effects. The viability of cells was determined using WST-1 (MK-400, […]) method by the absorbance at 440 nm. Hepatocyte protective effects of the Example compounds were represented by “EC50,” which was calculated from measured values. “EC50” herein means the concentration of the compound at which 50% of maximum protective effect is observed in the experiment.

Structure (SMILES)	EC50
O=C(C1CCCO1)N1CCC(Nc2cc(CN3CCS(=O)(=O)CC3)cc3cc(-c4ccccc4)[nH]c23)CC1 (centres unmarked) [Example 98, {4-[5-(1,1-Dioxo-thiomorpholin-4-yl)methyl-2-phenyl-1H-indol-7-yl]amino-piperidin-1-yl}-(tetrahydrofuran-2-yl)-methanone]	110 nM
Cc1cc(NCC2CCCC2)c2[nH]c(-c3ccccc3)cc2c1 [Example 42, Cyclopentylmethyl-(5-methyl-2-phenyl-1H-indol-7-yl)-amine]	40 nM
O=S1(=O)CCN(Cc2cc(NC3CCOCC3)c3[nH]c(-c4cccc(F)c4)cc3c2)CC1 [Example 75, (Tetrahydropyran-4-yl)-(5-(1,1-dioxo-thiomorpholin-4-yl)methyl-2-(3-fluorophenyl)-1H-indol-7-yl)-amine]	120 nM
CS(=O)(=O)Nc1ccc(-c2cc3cc(Cl)cc(NC4CCCC4)c3[nH]2)cc1 [Example 84, N-[4-(5-chloro-7-cyclopentylamino-1H-indol-2-yl)-phenyl]methanesulfonamide]	90 nM
CN(C)C1CCC(Nc2cc(Cl)cc3cc(-c4ccccc4)[nH]c23)CC1 (centres unmarked) [Example 100, N-(5-chloro-2-phenyl-1H-indol-7-yl)-N′,N′-dimethyl-cyclohexane-1,4-diamine]	80 nM
Clc1cc(Nc2ccccn2)c2[nH]c(-c3ccccc3)cc2c1 [Example 113, (5-Chloro-2-phenyl-1H-indol-7-yl)-pyridin-2-yl-amine]	350 nM
Cc1cc(NC2CCCC2)c2[nH]c(-c3ccccc3)c(C)c2c1 [Example 40, Cyclopentyl-[3,5-dimethyl-2-phenyl-1H-indol-7-yl]-amine]	200 nM
CCOC(=O)Cc1cc(NC2CCCC2)c2[nH]c(-c3ccccc3)cc2c1 [Example 31, 2-[7-(Cyclopentyl)amino-2-phenyl-1H-indol-5-yl]-acetic acid ethyl ester]	160 nM
O=C(O)Cc1cccc(-c2cc3cc(Cl)cc(NCC4CCOCC4)c3[nH]2)c1 [Example 127, 2-{3-[5-Chloro-7-(tetrahydropyran-4-ylmethyl)amino-1H-indol-2-yl]-phenyl}-acetic acid]	590 nM
Nc1ccc(-c2cc3cc(Cl)cc(NC4CCCC4)c3[nH]2)cc1 [Example 82, Cyclopentyl-[2-(4-aminophenyl)-5-chloro-1H-indol-7-yl]-amine]	70 nM
O=C1CN(Cc2c(-c3ccccc3)[nH]c3c(NC4CCOCC4)cc(Cl)cc23)CCN1 [Example 69, (Tetrahydropyran-4-yl)-(5-chloro-3-(2-oxo-piperazin-4-yl)methyl-2-phenyl-1H-indol-7-yl)-amine]	355 nM
COc1ccc(-c2n[nH]c3c(NC4CCCC4)cccc23)cc1 [Example 157, Cyclopentyl-[3-(4-methoxyphenyl)-1H-indazol-7-yl)-amine]	900 nM
OCc1ccc(-c2cc3cc(Cl)cc(NC4CCCC4)c3[nH]2)cc1 [Example 136, [4-(5-Chloro-7-cyclopentylamino-1H-indol-2-yl)-phenyl]-methanol]	50 nM
OCc1cccc(-c2cc3cc(Cl)cc(NC4CCCC4)c3[nH]2)c1 [Example 125, [3-(5-Chloro-7-cyclopentylamino-1H-indol-2-yl)-phenyl]-methanol]	111 nM
Cc1cc(NC2CCC(C(=O)O)CC2)c2[nH]c(-c3ccccc3)cc2c1 (centres unmarked) [Example 103, 4-(5-Methyl-2-phenyl-1H-indol-7-yl)amino-cyclohexane-1-carboxylic acid]	106 nM
O=S1(=O)CCN(Cc2cc(NC3CCOCC3)c3[nH]c(-c4ccccc4)cc3c2)CC1 [Example 36, (Tetrahydropyran-4-yl)[2-phenyl-5-(1,1-dioxo-thiomorpholin-4-yl)methyl-1H-indol-7-yl]amine]	63 nM
O=C1CN(Cc2c(-c3ccccc3)[nH]c3c(NCC4CCOCC4)cc(Cl)cc23)CCN1 [Example 71, (Tetrahydropyran-4-ylmethyl)-(5-chloro-3-(2-oxo-piperazin-4-yl)methyl-2-phenyl-1H-indol-7-yl)-amine]	254 nM
COC(=O)Cc1cccc(-c2cc3cc(Cl)cc(NCC4CCOCC4)c3[nH]2)c1 [Example 130, 2-{3-[5-Chloro-7-(tetrahydropyran-4-ylmethyl)amino-1H-indol-2-yl]-phenyl}-acetic acid methyl ester]	380 nM
O=C(O)C[C@@H]1CSC(c2cc(NCC3CCOCC3)c3[nH]c(-c4ccccc4)cc3c2)=N1 [Example 122, 2-[(R)-2-(2-phenyl-7-(tetrahydropyran-4-yl)methylamino-1H-indol-5-yl)-4,5-dihydro-thiazol-4-yl]-acetic acid]	200 nM

Structure (SMILES)	EC50
CC(=O)N1CCN(Cc2cccc(-c3cc4cc(Cl)cc(NC5CCOCC5)c4[nH]3)c2)CC1 [Example 150, 1-{4-[3-(5-Chloro-7-tetrahydropyran-4-ylamino-1H-indol-2-yl)-benzyl]-piperazin-1-yl}-ethanone]	160 nM
Cc1cc(NC2CCCC2)c2[nH]c(-c3cccc(C)n3)cc2c1 [Example 19, Cyclopentyl-[5-methyl-2-(6-methylpyridin-2-yl)-1H-indol-7-yl]-amine]	70 nM
O=S1(=O)CCN(Cc2cc(NCC3CCNCC3)c3[nH]c(-c4ccccc4)cc3c2)CC1 [Example 96, [5-(1,1-Dioxo-thiomorpholin-4-yl)methyl-2-phenyl-1H-indol-7-yl]-(piperidin-4-yl)methyl-amine]	120 nM
Clc1cc(NC2CCOCC2)c2[nH]cc(-c3ccccc3)c2c1 [Example 79, (Tetrahydropyran-4-yl)-(5-chloro-3-phenyl-1H-indol-7-yl)-amine]	140 nM
O=C(Cc1cc(NC2CCCC2)c2[nH]c(-c3ccccc3)cc2c1)N1CCCC1 [Example 119, 2-(7-Cyclopentylamino-2-phenyl-1H-indol-5-yl]-1-pyrrolidin-1-yl-ethanone]	140 nM
c1cc(NC2CCCC2)c2[nH]ncc2c1 [Example 153, Cyclopentyl-(1H-indazol-7-yl)-amine]	2100 nM
O=C(O)[C@@H]1CCCN1C(=O)c1cc(NC2CCOCC2)c2[nH]c(-c3ccccc3)cc2c1 [Example 118, (2S)-1-[2-phenyl-7-(tetrahydropyran-4-yl)amino-1H-indole-5-carbonyl]-pyrrolidine-2-carboxylic acid]	1100 nM
COC(=O)c1cccc(-c2cc3cc(Cl)cc(NC4CCCC4)c3[nH]2)c1 [Example 123, 3-(7-Cyclopentylamino-5-chloro-1H-indol-2-yl)-benzoic acid methyl ester]	190 nM
Cc1cc(NC(=O)Nc2ccccc2)c2[nH]c(-c3ccccn3)cc2c1 [Example 24, 1-Phenyl-3-[5-methyl-2-(pyridin-2-yl)-1H-indol-7-yl]-urea]	900 nM
O=C(O)c1cc(NC2CCCC2)c2[nH]c(-c3ccccc3)cc2c1 [Example 30, 7-(Cyclopentyl)amino-2-phenyl-1H-indole-5-carboxylic acid]	140 nM
Clc1cc(NC2CCN(Cc3ccccc3)C2)c2[nH]c(-c3ccccc3)cc2c1 (centres unmarked) [Example 51, (1-Benzylpyrrolidin-3-yl)-(5-chloro-2-phenyl-1H-indol-7-yl)-amine]	230 nM
c1ccc(-c2cc3cccc(NC4CCOCC4)c3[nH]2)nc1 [Example 8, (Tetrahydropyran-4-yl)-[2-(pyridin-2-yl)-1H-indol-7-yl]-amine]	2500 nM
Cc1cc(NC2CCCC2)c2[nH]c(-c3cnccn3)cc2c1 [Example 6, Cyclopentyl-[5-methyl-2-(pyrazin-2-yl)-1H-indol-7-yl]-amine]	300 nM
OCC(CO)Nc1cc(Cl)cc2cc(-c3ccccc3)[nH]c12 [Example 54, 2-[(5-Chloro-2-phenyl-1H-indol-7-yl)amino]propan-1,3-diol]	220 nM
CC(=O)Nc1ccc(-c2cc3cc(N4CCS(=O)(=O)CC4)cc(NC4CCOCC4)c3[nH]2)cc1 [Example 89, (Tetrahydropyran-4-yl)-{5-(1,1-dioxo-thiomorpholin-4-yl)-2-[4-(acetyl)aminophenyl]-1H-indol-7-yl}-amine]	300 nM
O=C(O)Cc1ccc(-c2cc3cc(Cl)cc(NC4CCOCC4)c3[nH]2)cc1 [Example 141, 2-{4-[5-Chloro-7-(tetrahydropyran-4-yl)amino-1H-indol-2-yl]phenyl}-acetic acid]	460 nM
Cc1cc(NC2CCN(C)CC2)c2[nH]c(-c3ccccc3)cc2c1 [Example 44, (1-Methylpiperidin-4-yl)-(5-methyl-2-phenyl-1H-indol-7-yl)-amine]	170 nM
Cc1cc(NC2CCN(S(C)(=O)=O)CC2)c2[nH]c(-c3ccccc3)cc2c1 [Example 91, [1-(Methanesulfonyl)piperidin-4-yl]-(5-methyl-2-phenyl-1H-indol-7-yl)-amine]	42 nM

Same assay, conditions: doxorubicin; rat primary hepatocytes; 24-48 h; read-out: EC50, cell protective effects against doxorubicin in hepatocytes

Structure (SMILES)	EC50
COC(=O)Cc1cccc(-c2cc3cc(Cl)cc(NC4CCOCC4)c3[nH]2)c1 [Example 132]	430 nM
